# Values of other authors, collected in patent publication US12285483B2 (priority 2020, dated 2025).
# Conditions: pure solanesol, room temperature
substance,measurement,value
solanesol,solubility in water,insoluble in water
